Laboratory results published in article PMC10520499, “Next step in the development of mesoprogestins: the preclinical profile of EC313” (Frontiers in Endocrinology, 2023).
“And” between values parts separate entries of the source, which are not always exact repeats. Equal entries are not always repeated.

How the values were obtained:
GR = biological target: T1, GR (Homo sapiens, UniProt P04150); assay: Competitive binding, full length human glucocorticoid receptor; design: made in house; host or cells: HI (Hi5) insect cells, baculovirus; cellular lysate
T1 sequence (P04150 1-777): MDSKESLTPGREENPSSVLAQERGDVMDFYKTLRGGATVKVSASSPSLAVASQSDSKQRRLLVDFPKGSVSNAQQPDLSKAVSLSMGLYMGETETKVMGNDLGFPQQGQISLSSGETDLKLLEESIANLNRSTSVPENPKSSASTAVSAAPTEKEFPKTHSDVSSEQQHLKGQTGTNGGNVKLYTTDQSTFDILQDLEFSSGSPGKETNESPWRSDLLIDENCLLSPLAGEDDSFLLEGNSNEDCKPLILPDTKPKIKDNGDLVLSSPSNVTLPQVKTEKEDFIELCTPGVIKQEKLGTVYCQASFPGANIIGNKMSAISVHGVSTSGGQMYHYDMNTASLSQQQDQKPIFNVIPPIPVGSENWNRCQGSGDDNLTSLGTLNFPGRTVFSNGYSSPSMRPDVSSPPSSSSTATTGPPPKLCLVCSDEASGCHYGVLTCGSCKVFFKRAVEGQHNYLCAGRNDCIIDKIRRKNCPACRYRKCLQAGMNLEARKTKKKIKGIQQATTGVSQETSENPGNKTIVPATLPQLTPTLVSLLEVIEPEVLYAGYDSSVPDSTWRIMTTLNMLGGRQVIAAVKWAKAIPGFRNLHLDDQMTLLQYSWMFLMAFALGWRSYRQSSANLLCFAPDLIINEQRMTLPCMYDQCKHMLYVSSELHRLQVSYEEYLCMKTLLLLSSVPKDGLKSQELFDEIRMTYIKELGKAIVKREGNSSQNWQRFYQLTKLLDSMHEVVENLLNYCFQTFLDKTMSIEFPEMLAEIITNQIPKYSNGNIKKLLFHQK
Description: (§1) The study aimed to characterize the competitive binding profile of EC313 to relevant human nuclear receptors. For the assays, commercially available ‘ligand binding domain’ proteins were purchased (Thermo Fisher Scientific). In addition, the full-length receptor proteins were expressed in transfected HI insect cells using the `Bac-to-bac Baculovirus expression system´ (Thermo Fisher Scientific). Cellular lysates served as receptor preparation. Receptor protein preparations were incubated with tritiated reference ligands and EC313 or reference steroids at concentrations between 0.1 and 1000 nM for 2h at 4°C to reach equilibrium. Subsequently, unbound steroids were adsorbed to dextran-coated charcoal (Sigma Aldrich), separated by filtration, and the remaining radioactivity was quantified in a ß-counter (Perkin Elmer). Displacement curves were fitted using the GraphPad Prism 7 free version to obtain EC50 values. Relative binding affinity (RBA [%], (C50ref/C50test)*100) and the competition coefficient (C50test/C50ref) were used to describe the relative binding potency of EC313 compared to the reference ligands.

T47D cells = assay: Proliferation / arrest in Go/G1 in T47D cells; assay type: cell-based, human; design: key to Arrest in Go/G1: ↓/↑ - decreased/increased action of tested compounds.; ↓/↑ - decreased/increased action of tested compounds
[1] = biological target: T2, human progesterone receptor ligand binding domain (PR-LBD) (Homo sapiens, UniProt P06401); assay: Competitive binding, PR ligand binding domain; conditions: compared to progesterone
T2 construct: purchased Thermo Fisher Scientific
Description: as §1

[2] = biological target: T3, human estrogen receptor α (Homo sapiens, UniProt P03372); assay: Competitive binding, human estrogen receptor α; conditions: ERα, full length
T3 construct: coding for the full length human estrogen receptors α and β, respectively, were obtained from GenScript; made in house; host or cells: HI (Hi5) insect cells, baculovirus; cellular lysate
Description: as §1
There are two subtypes of estrogen receptors (ER), ERα and ERβ, coded in different genes. Plasmids pFastBac1-ERa and pFastBac1-ERb, coding for the full length human estrogen receptors α and β, respectively, were obtained from GenScript. […]

T3 sequence (P03372 whole entry): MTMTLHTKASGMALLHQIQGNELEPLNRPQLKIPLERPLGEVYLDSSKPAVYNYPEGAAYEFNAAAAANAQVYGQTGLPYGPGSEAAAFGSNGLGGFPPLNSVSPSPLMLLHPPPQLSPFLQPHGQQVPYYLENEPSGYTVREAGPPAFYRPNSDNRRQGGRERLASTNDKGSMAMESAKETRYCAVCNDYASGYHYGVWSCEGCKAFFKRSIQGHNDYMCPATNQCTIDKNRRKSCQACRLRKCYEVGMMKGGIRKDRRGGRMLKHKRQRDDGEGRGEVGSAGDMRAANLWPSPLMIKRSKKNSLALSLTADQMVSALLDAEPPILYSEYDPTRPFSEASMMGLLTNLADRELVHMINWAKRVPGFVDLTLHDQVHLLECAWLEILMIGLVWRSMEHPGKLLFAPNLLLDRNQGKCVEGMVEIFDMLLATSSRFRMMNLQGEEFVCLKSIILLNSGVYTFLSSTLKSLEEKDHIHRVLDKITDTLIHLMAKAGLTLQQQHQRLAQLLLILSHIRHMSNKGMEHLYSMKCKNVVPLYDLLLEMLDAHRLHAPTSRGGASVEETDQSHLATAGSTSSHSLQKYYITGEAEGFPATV
T2 sequence (P06401 679-913 limits assumed): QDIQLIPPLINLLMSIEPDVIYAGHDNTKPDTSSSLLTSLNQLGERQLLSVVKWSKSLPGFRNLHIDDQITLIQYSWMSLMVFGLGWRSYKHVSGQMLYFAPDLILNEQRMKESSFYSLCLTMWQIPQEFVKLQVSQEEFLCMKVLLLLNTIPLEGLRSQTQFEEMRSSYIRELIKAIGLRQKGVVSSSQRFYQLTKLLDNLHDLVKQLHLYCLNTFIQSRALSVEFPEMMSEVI

**Q.** `C[C@]12C[C@H](c3ccc(-c4ccoc4)cc3)C3=C4CCC(=O)C=C4CC[C@H]3[C@@H]1CC[C@]21OCCC1=C(F)F` [EC313] was tested. Which “Comp. Coefficient” value (GR; EC313 relative to Dexamethasone) did it give?
**A.** 12 and 11.8

**Q.** And the IC50 (GR; tritiated ligand displacement)?
**A.** 226 ± 9 nM

**Q.** What about the “estradiol-induced proliferation of T47D” value (T47D cells) of the same compound?
**A.** counteracts the estradiol-induced proliferation of T47D

**Q.** What about the “Arrest in Go/G1” value (T47D cells; Proliferation, T47D cells, statistical significance not always reached) of the same compound?
**A.** ↑

**Q.** What about the “affinity to the ligand binding domain” value [1] of the same compound?
**A.** the same as that of progesterone

**Q.** And the “competitive displacement of [3H]-estradiol” value [2]?
**A.** did not cause any competitive displacement
